# Where two headings read alike, the source gives them in different places.
# Key:
# [1] = test system: panel of 55 breast cancer cell lines; assay: Cell growth inhibition assay (Cell Titer Glo, 72 h, 9 doses; GI50, TGI, LC50); format: cell-based, human; conditions: Homo sapiens, read-out: GI50 (converted)
# [2] = test system: luminal, basal, claudin-low and ERBB2AMP breast cancer cell lines; assay: Associations of clinically relevant subtypes and response (non-parametric ANOVA or t-test on GI50 ranks); format: cell-based, human
# Summary of the method: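 Significance was set at FDR p<0.20 after combining p-values across three test sets. Subtype–response associations came from rank-based non-parametric ANOVA or t-tests on GI50. For three-class comparisons, post-hoc tests of each group against the rest identified the most sensitive group, with FDR correction.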
structure (smiles),measurement,setting,value
CC(=O)O[C@@]12CO[C@@H]1C[C@H](O)[C@@]1(C)C(=O)[C@H](O)C3=C(C)[C@@H](OC(=O)[C@H](O)[C@@H](NC(=O)OC(C)(C)C)c4ccccc4)C[C@@](O)([C@@H](OC(=O)c4ccccc4)[C@H]21)C3(C)C [Docetaxel],GI50,"[1]; 600MPE cell line, censored GI50 values",97.7 nM
same,GI50,"[1]; AU565, AU565 cell line, censored GI50 values",5.25 nM
same,GI50,"[1]; AU565, cell line AU565",5.25 nM
same,GI50,"[1]; BT-474, BT474 cell line, censored GI50 values",6.31 nM
same,GI50,"[1]; BT-474, cell line BT474",6.31 nM
same,GI50,"[1]; BT-483, BT483 cell line, censored GI50 values",23.4 nM
same,GI50,"[1]; BT-483, cell line BT483",23.4 nM
same,GI50,"[1]; CAMA-1, CAMA1 cell line, censored GI50 values",5.62 nM
same,GI50,"[1]; CAMA-1, cell line CAMA1",5.62 nM
same,GI50,"[1]; HCC38, HCC38 cell line, censored GI50 values",2.04 nM
same,GI50,"[1]; HCC38, cell line HCC38",2.04 nM
same,GI50,"[1]; HCC70, HCC70 cell line, censored GI50 values",5.13 nM
same,GI50,"[1]; HCC70, cell line HCC70",5.13 nM
same,GI50,"[1]; HCC202, HCC202 cell line, censored GI50 values",3.72 nM
same,GI50,"[1]; HCC202, cell line HCC202",3.72 nM
same,GI50,"[1]; HCC1143, HCC1143 cell line, censored GI50 values",11 nM
same,GI50,"[1]; HCC1143, cell line HCC1143",11 nM
same,GI50,"[1]; HCC1187, HCC1187 cell line, censored GI50 values",2.51 nM
same,GI50,"[1]; HCC1187, cell line HCC1187",2.51 nM
same,GI50,"[1]; HCC1395, HCC1395 cell line, censored GI50 values",5.62 nM
same,GI50,"[1]; HCC1395, cell line HCC1395",5.62 nM
same,GI50,"[1]; HCC1419, HCC1419 cell line, censored GI50 values",16.6 nM
same,GI50,"[1]; HCC1419, cell line HCC1419",16.6 nM
same,GI50,"[1]; HCC1428, HCC1428 cell line, censored GI50 values",5010 nM
same,GI50,"[1]; HCC1428, cell line HCC1428",5010 nM
same,GI50,"[1]; HCC1500, HCC1500 cell line, censored GI50 values",2.75 nM
same,GI50,"[1]; HCC1500, cell line HCC1500",2.75 nM
same,GI50,"[1]; HCC1806, HCC1806 cell line, censored GI50 values",2.57 nM
same,GI50,"[1]; HCC1806, cell line HCC1806",2.57 nM
same,GI50,"[1]; HCC1954, HCC1954 cell line, censored GI50 values",1.66 nM
same,GI50,"[1]; HCC1954, cell line HCC1954",1.66 nM
same,GI50,"[1]; HCC2185 cell line, censored GI50 values",3.02 nM
same,GI50,"[1]; HCC3153 cell line, censored GI50 values",9.77 nM
same,GI50,"[1]; LY2 cell line, censored GI50 values",4.27 nM
same,GI50,"[1]; MCF7, MCF7 cell line, censored GI50 values",12.3 nM
same,GI50,"[1]; MCF7, cell line MCF7",12.3 nM
same,GI50,"[1]; MDA-MB-134-VI, MDAMB134VI cell line, censored GI50 values",23.4 nM
same,GI50,"[1]; MDA-MB-175-VII, MDAMB175VII cell line, censored GI50 values",15.8 nM
same,GI50,"[1]; MDA-MB-231, MDAMB231 cell line, censored GI50 values",2.82 nM
same,GI50,"[1]; MDA-MB-231, cell line MDAMB231",2.82 nM
same,GI50,"[1]; MDA-MB-361, MDAMB361 cell line, censored GI50 values",5.62 nM
same,GI50,"[1]; MDA-MB-361, cell line MDAMB361",5.62 nM
same,GI50,"[1]; MDA-MB-415, MDAMB415 cell line, censored GI50 values",2.88 nM
same,GI50,"[1]; MDA-MB-415, cell line MDAMB415",2.88 nM
same,GI50,"[1]; MDA-MB-436, MDAMB436 cell line, censored GI50 values",17 nM
same,GI50,"[1]; MDA-MB-436, cell line MDAMB436",17 nM
same,GI50,"[1]; MDA-MB-453, MDAMB453 cell line, censored GI50 values",4.37 nM
same,GI50,"[1]; MDA-MB-453, cell line MDAMB453",4.37 nM
same,GI50,"[1]; MDA-MB-468, MDAMB468 cell line, censored GI50 values",2.88 nM
same,GI50,"[1]; MDA-MB-468, cell line MDAMB468",2.88 nM
same,GI50,"[1]; SK-BR-3, SKBR3 cell line, censored GI50 values",7.59 nM
same,GI50,"[1]; SK-BR-3, cell line SKBR3",7.59 nM
same,GI50,"[1]; SUM52PE, SUM52PE cell line, censored GI50 values",1.82 nM
same,GI50,"[1]; SUM52PE, cell line SUM52PE",1.82 nM
same,GI50,"[1]; SUM149PT, SUM149PT cell line, censored GI50 values",1.74 nM
same,GI50,"[1]; SUM149PT, cell line SUM149PT",1.74 nM
same,GI50,"[1]; SUM185PE, SUM185PE cell line, censored GI50 values",5010 nM
same,GI50,"[1]; SUM185PE, cell line SUM185PE",5010 nM
same,GI50,"[1]; SUM1315MO2, SUM1315MO2 cell line, censored GI50 values",2.95 nM
same,GI50,"[1]; SUM-159-PT, SUM159PT cell line, censored GI50 values",4.57 nM
same,GI50,"[1]; SUM-159-PT, cell line SUM159PT",4.57 nM
same,GI50,"[1]; UACC-812, UACC812 cell line, censored GI50 values",3.24 nM
same,GI50,"[1]; UACC-812, cell line UACC812",3.24 nM
same,GI50,"[1]; UACC-893, UACC893 cell line, censored GI50 values",11.5 nM
same,GI50,"[1]; UACC-893, cell line UACC893",11.5 nM
same,GI50,"[1]; ZR-75-1, ZR751 cell line, censored GI50 values",28.2 nM
same,GI50,"[1]; ZR-75-1, cell line ZR751",28.2 nM
same,GI50,"[1]; ZR-75-30, ZR7530 cell line, censored GI50 values",3.98 nM
same,GI50,"[1]; ZR-75-30, cell line ZR7530",3.98 nM
same,GI50,"[1]; ZR-75B, ZR75B cell line, censored GI50 values",15.5 nM
same,GI50,"[1]; ZR-75B, cell line ZR75B",15.5 nM
same,GI50,[1]; cell line 600MPE,97.7 nM
same,GI50,[1]; cell line HCC2185,3.02 nM
same,GI50,[1]; cell line HCC3153,9.77 nM
same,GI50,[1]; cell line LY2,4.27 nM
same,GI50,[1]; cell line MDAMB134V,23.4 nM
same,GI50,[1]; cell line MDAMB175V,15.8 nM
same,GI50,[1]; cell line SUM1315MO,2.95 nM
same,subtype-specific response (sensitivity by transcriptional subtype),[2]; GI50 across subtypes,preferential activity in basal and/or claudin-low cell lines
same,Subtype specificity,"[2]; Table 6, most sensitive subtype, FDR p<0.20",Basal

# From patent publication US10770169B2, “Method of providing a treatment to a subject based on a dynamic pathway map” (THE REGENTS OF THE UNIVERSITY OF CALIFORNIA, priority 2010, dated 2020)
